Reference: patent US9738634B2, “Heterocyclic amide compound and herbicide” (SYNGENTA PARTICIPATIONS AG, priority 2013, dated 2017)

Legend:
Assay type in all cases: in vivo
crabgrass [1] = experiment: Test Example 4: weedkilling efficacy by foliar treatment; D: crabgrass; settings: treatment dosage 315 g/ha
Outline: (§1)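 Seeds are spot-sown into sterilized diluvial soil and covered with about 1.5 cm of soil. After 14 days' greenhouse growth at 25 to 30° C, plants are sprayed on stems and leaves with diluted emulsion at the stated g/ha rate, then scored at 3 weeks.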

redroot pigweed [2] = experiment: Test Example 3: weedkilling efficacy through soil treatment; L: redroot pigweed; settings: treatment dosage 315 g/ha
Outline: (§2)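 Crop and weed responses were judged three weeks after a uniform surface spray of the water-diluted emulsion at the given g/ha rate. Seeds sat beneath about 1.5 cm of sterilized diluvial soil, and boxes stood in a greenhouse at 25 to 30° C.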

bulrush [3] = experiment: Test Example 2: weedkilling efficacy, growth period weed treatment in the submerged state; B: bulrush; settings: treatment dosage 252 g/ha
Outline: (§3)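 Barnyard grass, bulrush and oval-leafed pondweed sown in alluvial soil under 4 cm flooding, greenhouse 25 to 30° C. At 1-2 leaf stage, water-diluted emulsion applied to the water surface at stated g/ha dosages; effects scored 3 weeks later.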

catchweed [4] = experiment: Test Example 3: weedkilling efficacy through soil treatment; O: catchweed; settings: treatment dosage 315 g/ha
Outline: as §2

oval-leafed pondweed [5] = experiment: Test Example 2: weedkilling efficacy, growth period weed treatment in the submerged state; C: oval-leafed pondweed; settings: treatment dosage 252 g/ha
Outline: as §3

Indian mallow [6] = experiment: Test Example 3: weedkilling efficacy through soil treatment; K: Indian mallow; settings: treatment dosage 315 g/ha
Outline: as §2

green foxtail [7] = experiment: Test Example 4: weedkilling efficacy by foliar treatment; E: green foxtail; settings: treatment dosage 315 g/ha
Outline: as §1

barnyard grass [8] = experiment: Test Example 1: weedkilling efficacy, preemergent weed treatment in the submerged state; A: barnyard grass; settings: treatment dosage 252 g/ha
Outline: (§4)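 Visual scores against set criteria were taken 3 weeks after treatment. Compounds, as diluted emulsions at specified g/ha, went onto the water surface of 4 cm-flooded alluvial soil pots on the day weeds were sown and 2.5-leaf rice was transplanted; greenhouse held 25–30 °C.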

beet [9] = experiment: Test Example 4: foliar treatment, effect on crop; f: beet; settings: treatment dosage 315 g/ha
Outline: as §1

Indian mallow [10] = experiment: Test Example 4: weedkilling efficacy by foliar treatment; K: Indian mallow; settings: treatment dosage 315 g/ha
Outline: as §1

catchweed [11] = experiment: Test Example 4: weedkilling efficacy by foliar treatment; O: catchweed; settings: treatment dosage 315 g/ha
Outline: as §1

crabgrass [12] = experiment: Test Example 3: weedkilling efficacy through soil treatment; D: crabgrass; settings: treatment dosage 315 g/ha
Outline: as §2

soybean [13] = experiment: Test Example 4: foliar treatment, effect on crop; d: soybean; settings: treatment dosage 315 g/ha
Outline: as §1

directly sown rice [14] = experiment: Test Example 4: foliar treatment, effect on crop; b: directly sown rice; settings: treatment dosage 315 g/ha
Outline: as §1

chickweed [15] = experiment: Test Example 4: weedkilling efficacy by foliar treatment; N: chickweed; settings: treatment dosage 315 g/ha
Outline: as §1

wheat [16] = experiment: Test Example 4: foliar treatment, effect on crop; e: wheat; settings: treatment dosage 315 g/ha
Outline: as §1

fig-leafed goosefoot [17] = experiment: Test Example 4: weedkilling efficacy by foliar treatment; M: fig-leafed goosefoot; settings: treatment dosage 315 g/ha
Outline: as §1

chickweed [18] = experiment: Test Example 3: weedkilling efficacy through soil treatment; N: chickweed; settings: treatment dosage 315 g/ha
Outline: as §2

black-grass [19] = experiment: Test Example 3: weedkilling efficacy through soil treatment; H: black-grass; settings: treatment dosage 315 g/ha
Outline: as §2

redroot pigweed [20] = experiment: Test Example 4: weedkilling efficacy by foliar treatment; L: redroot pigweed; settings: treatment dosage 315 g/ha
Outline: as §1

birds-eye speedwell [21] = experiment: Test Example 4: weedkilling efficacy by foliar treatment; p: birds-eye speedwell; settings: treatment dosage 315 g/ha
Outline: as §1

oval-leafed pondweed [22] = experiment: Test Example 1: weedkilling efficacy, preemergent weed treatment in the submerged state; C: oval-leafed pondweed; settings: treatment dosage 252 g/ha
Outline: as §4

corn [23] = experiment: Test Example 4: foliar treatment, effect on crop; c: corn; settings: treatment dosage 315 g/ha
Outline: as §1

bulrush [24] = experiment: Test Example 1: weedkilling efficacy, preemergent weed treatment in the submerged state; B: bulrush; settings: treatment dosage 252 g/ha
Outline: as §4

corn [25] = experiment: Test Example 3: soil treatment, effect on crop; c: corn; settings: treatment dosage 315 g/ha
Outline: as §2

wheat [26] = experiment: Test Example 3: soil treatment, effect on crop; e: wheat; settings: treatment dosage 315 g/ha
Outline: as §2

Italian ryegrass [27] = experiment: Test Example 3: weedkilling efficacy through soil treatment; I: Italian ryegrass; settings: treatment dosage 315 g/ha
Outline: as §2

soybean [28] = experiment: Test Example 3: soil treatment, effect on crop; d: soybean; settings: treatment dosage 315 g/ha
Outline: as §2

transplanted rice = experiment: Test Example 1: preemergent weed treatment in the submerged state, effect on crop; a: transplanted rice; settings: treatment dosage 252 g/ha
Outline: as §4

black-grass [29] = experiment: Test Example 4: weedkilling efficacy by foliar treatment; H: black-grass; settings: treatment dosage 315 g/ha
Outline: as §1

beet [30] = experiment: Test Example 3: soil treatment, effect on crop; f: beet; settings: treatment dosage 315 g/ha
Outline: as §2

barnyard grass [31] = experiment: Test Example 2: weedkilling efficacy, growth period weed treatment in the submerged state; A: barnyard grass; settings: treatment dosage 252 g/ha
Outline: as §3

directly sown rice [32] = experiment: Test Example 3: soil treatment, effect on crop; b: directly sown rice; settings: treatment dosage 315 g/ha
Outline: as §2

Italian ryegrass [33] = experiment: Test Example 4: weedkilling efficacy by foliar treatment; I: Italian ryegrass; settings: treatment dosage 315 g/ha
Outline: as §1

birds-eye speedwell [34] = experiment: Test Example 3: weedkilling efficacy through soil treatment; p: birds-eye speedwell; settings: treatment dosage 315 g/ha
Outline: as §2

green foxtail [35] = experiment: Test Example 3: weedkilling efficacy through soil treatment; E: green foxtail; settings: treatment dosage 315 g/ha
Outline: as §2

fig-leafed goosefoot [36] = experiment: Test Example 3: weedkilling efficacy through soil treatment; M: fig-leafed goosefoot; settings: treatment dosage 315 g/ha
Outline: as §2

| Structure (SMILES) | D (crabgrass) weedkilling efficacy grade (crabgrass [1]) | L (redroot pigweed) weedkilling efficacy grade (redroot pigweed [2]) | B (bulrush) weedkilling efficacy grade (bulrush [3]) | O (catchweed) weedkilling efficacy grade (catchweed [4]) | C (oval-leafed pondweed) weedkilling efficacy grade (oval-leafed pondweed [5]) | K (Indian mallow) weedkilling efficacy grade (Indian mallow [6]) | E (green foxtail) weedkilling efficacy grade (green foxtail [7]) | A (barnyard grass) weedkilling efficacy grade (barnyard grass [8]) | f (beet) effect on crop grade (beet [9]) | K (Indian mallow) weedkilling efficacy grade (Indian mallow [10]) | O (catchweed) weedkilling efficacy grade (catchweed [11]) | D (crabgrass) weedkilling efficacy grade (crabgrass [12]) | d (soybean) effect on crop grade (soybean [13]) | b (directly sown rice) effect on crop grade (directly sown rice [14]) | N (chickweed) weedkilling efficacy grade (chickweed [15]) | e (wheat) effect on crop grade (wheat [16]) | M (fig-leafed goosefoot) weedkilling efficacy grade (fig-leafed goosefoot [17]) | N (chickweed) weedkilling efficacy grade (chickweed [18]) | H (black-grass) weedkilling efficacy grade (black-grass [19]) | L (redroot pigweed) weedkilling efficacy grade (redroot pigweed [20]) | other results |
| --- | --- | --- | --- | --- | --- | --- | --- | --- | --- | --- | --- | --- | --- | --- | --- | --- | --- | --- | --- | --- | --- |
| CC1=C(c2ccccc2)C(=O)N(C(C)(C)C(=O)Nc2nc(C)ns2)CO1 [B-1-13] | 5 (weed kill ratio 90% or more, (practically complete withering)) | 4 (weed kill ratio 70% or more, less than 90%) | 5 (weed kill ratio 90% or more, (practically complete withering)) | 5 (weed kill ratio 90% or more, (practically complete withering)) | 5 (weed kill ratio 90% or more, (practically complete withering)) | 2 (weed kill ratio 20% or more, less than 40%) | 5 (weed kill ratio 90% or more, (practically complete withering)) | 5 (weed kill ratio 90% or more, (practically complete withering)) | 3 (weed kill ratio 40% or more, less than 70%) | 5 (weed kill ratio 90% or more, (practically complete withering)) | 5 (weed kill ratio 90% or more, (practically complete withering)) | 5 (weed kill ratio 90% or more, (practically complete withering)) | 5 (weed kill ratio 90% or more, (practically complete withering)) | 5 (weed kill ratio 90% or more, (practically complete withering)) | 4 (weed kill ratio 70% or more, less than 90%) | 4 (weed kill ratio 70% or more, less than 90%) | 4 (weed kill ratio 70% or more, less than 90%) | 4 (weed kill ratio 70% or more, less than 90%) | 5 (weed kill ratio 90% or more, (practically complete withering)) | 5 (weed kill ratio 90% or more, (practically complete withering)) | P (birds-eye speedwell) weedkilling efficacy grade (birds-eye speedwell [21]): 4 (weed kill ratio 70% or more, less than 90%); C (oval-leafed pondweed) weedkilling efficacy grade (oval-leafed pondweed [22]): 5 (weed kill ratio 90% or more, (practically complete withering)); c (corn) effect on crop grade (corn [23]): 2 (weed kill ratio 20% or more, less than 40%); B (bulrush) weedkilling efficacy grade (bulrush [24]): 5 (weed kill ratio 90% or more, (practically complete withering)); c (corn) effect on crop grade (corn [25]): 3 (weed kill ratio 40% or more, less than 70%); e (wheat) effect on crop grade (wheat [26]): 5 (weed kill ratio 90% or more, (practically complete withering)); I (Italian ryegrass) weedkilling efficacy grade (Italian ryegrass [27]): 5 (weed kill ratio 90% or more, (practically complete withering)); d (soybean) effect on crop grade (soybean [28]): 4 (weed kill ratio 70% or more, less than 90%); a (transplanted rice) effect on crop grade (transplanted rice): 0 (weed kill ratio 5% or less (practically no effect)); H (black-grass) weedkilling efficacy grade (black-grass [29]): 5 (weed kill ratio 90% or more, (practically complete withering)); f (beet) effect on crop grade (beet [30]): 5 (weed kill ratio 90% or more, (practically complete withering)); A (barnyard grass) weedkilling efficacy grade (barnyard grass [31]): 5 (weed kill ratio 90% or more, (practically complete withering)); b (directly sown rice) effect on crop grade (directly sown rice [32]): 5 (weed kill ratio 90% or more, (practically complete withering)); I (Italian ryegrass) weedkilling efficacy grade (Italian ryegrass [33]): 5 (weed kill ratio 90% or more, (practically complete withering)); P (birds-eye speedwell) weedkilling efficacy grade (birds-eye speedwell [34]): 5 (weed kill ratio 90% or more, (practically complete withering)); E (green foxtail) weedkilling efficacy grade (green foxtail [35]): 5 (weed kill ratio 90% or more, (practically complete withering)); M (fig-leafed goosefoot) weedkilling efficacy grade (fig-leafed goosefoot [36]): 4 (weed kill ratio 70% or more, less than 90%) |
| CC1=C(c2ccc(Cl)s2)C(=O)N(C(C)(C)C(=O)Nc2cccc(Br)n2)CO1 [B-2-03] | 3 (weed kill ratio 40% or more, less than 70%) | 3 (weed kill ratio 40% or more, less than 70%) | 5 (weed kill ratio 90% or more, (practically complete withering)) | 0 (weed kill ratio 5% or less (practically no effect)) | 4 (weed kill ratio 70% or more, less than 90%) | 0 (weed kill ratio 5% or less (practically no effect)) | 1 (weed kill ratio 5% or more, less than 20%) | 5 (weed kill ratio 90% or more, (practically complete withering)) | 1 (weed kill ratio 5% or more, less than 20%) | 0 (weed kill ratio 5% or less (practically no effect)) | 0 (weed kill ratio 5% or less (practically no effect)) | 3 (weed kill ratio 40% or more, less than 70%) | 1 (weed kill ratio 5% or more, less than 20%) | 1 (weed kill ratio 5% or more, less than 20%) | 0 (weed kill ratio 5% or less (practically no effect)) | 0 (weed kill ratio 5% or less (practically no effect)) | 3 (weed kill ratio 40% or more, less than 70%) | 4 (weed kill ratio 70% or more, less than 90%) | 5 (weed kill ratio 90% or more, (practically complete withering)) | 1 (weed kill ratio 5% or more, less than 20%) | P (birds-eye speedwell) weedkilling efficacy grade (birds-eye speedwell [21]): 2 (weed kill ratio 20% or more, less than 40%); C (oval-leafed pondweed) weedkilling efficacy grade (oval-leafed pondweed [22]): 5 (weed kill ratio 90% or more, (practically complete withering)); c (corn) effect on crop grade (corn [23]): 0 (weed kill ratio 5% or less (practically no effect)); B (bulrush) weedkilling efficacy grade (bulrush [24]): 5 (weed kill ratio 90% or more, (practically complete withering)); c (corn) effect on crop grade (corn [25]): 0 (weed kill ratio 5% or less (practically no effect)); e (wheat) effect on crop grade (wheat [26]): 1 (weed kill ratio 5% or more, less than 20%); I (Italian ryegrass) weedkilling efficacy grade (Italian ryegrass [27]): 3 (weed kill ratio 40% or more, less than 70%); d (soybean) effect on crop grade (soybean [28]): 0 (weed kill ratio 5% or less (practically no effect)); a (transplanted rice) effect on crop grade (transplanted rice): 0 (weed kill ratio 5% or less (practically no effect)); H (black-grass) weedkilling efficacy grade (black-grass [29]): 3 (weed kill ratio 40% or more, less than 70%); f (beet) effect on crop grade (beet [30]): 0 (weed kill ratio 5% or less (practically no effect)); A (barnyard grass) weedkilling efficacy grade (barnyard grass [31]): 5 (weed kill ratio 90% or more, (practically complete withering)); b (directly sown rice) effect on crop grade (directly sown rice [32]): 1 (weed kill ratio 5% or more, less than 20%); I (Italian ryegrass) weedkilling efficacy grade (Italian ryegrass [33]): 3 (weed kill ratio 40% or more, less than 70%); P (birds-eye speedwell) weedkilling efficacy grade (birds-eye speedwell [34]): 4 (weed kill ratio 70% or more, less than 90%); E (green foxtail) weedkilling efficacy grade (green foxtail [35]): 3 (weed kill ratio 40% or more, less than 70%); M (fig-leafed goosefoot) weedkilling efficacy grade (fig-leafed goosefoot [36]): 0 (weed kill ratio 5% or less (practically no effect)) |
